Reference: article PMC12583661, “Commensal gut bacteria employ de-chelatase HmuS to harvest iron from heme” (The EMBO Journal, 2025)

Key:
HmuS [1] = target: T1, HmuS (Bacteroides thetaiotaomicron, UniProt A0A0P0FP54); assay: cryo-EM structure at […] Å with heme; UV/vis hemin titration (Kd); HPLC turnover to PPIX; type: binding
T1 construct: gene GAN91_17490; soluble HmuS without its predicted N- and C-terminal membrane-anchoring helices
T1 sequence (A0A0P0FP54 28-1433 limits assumed): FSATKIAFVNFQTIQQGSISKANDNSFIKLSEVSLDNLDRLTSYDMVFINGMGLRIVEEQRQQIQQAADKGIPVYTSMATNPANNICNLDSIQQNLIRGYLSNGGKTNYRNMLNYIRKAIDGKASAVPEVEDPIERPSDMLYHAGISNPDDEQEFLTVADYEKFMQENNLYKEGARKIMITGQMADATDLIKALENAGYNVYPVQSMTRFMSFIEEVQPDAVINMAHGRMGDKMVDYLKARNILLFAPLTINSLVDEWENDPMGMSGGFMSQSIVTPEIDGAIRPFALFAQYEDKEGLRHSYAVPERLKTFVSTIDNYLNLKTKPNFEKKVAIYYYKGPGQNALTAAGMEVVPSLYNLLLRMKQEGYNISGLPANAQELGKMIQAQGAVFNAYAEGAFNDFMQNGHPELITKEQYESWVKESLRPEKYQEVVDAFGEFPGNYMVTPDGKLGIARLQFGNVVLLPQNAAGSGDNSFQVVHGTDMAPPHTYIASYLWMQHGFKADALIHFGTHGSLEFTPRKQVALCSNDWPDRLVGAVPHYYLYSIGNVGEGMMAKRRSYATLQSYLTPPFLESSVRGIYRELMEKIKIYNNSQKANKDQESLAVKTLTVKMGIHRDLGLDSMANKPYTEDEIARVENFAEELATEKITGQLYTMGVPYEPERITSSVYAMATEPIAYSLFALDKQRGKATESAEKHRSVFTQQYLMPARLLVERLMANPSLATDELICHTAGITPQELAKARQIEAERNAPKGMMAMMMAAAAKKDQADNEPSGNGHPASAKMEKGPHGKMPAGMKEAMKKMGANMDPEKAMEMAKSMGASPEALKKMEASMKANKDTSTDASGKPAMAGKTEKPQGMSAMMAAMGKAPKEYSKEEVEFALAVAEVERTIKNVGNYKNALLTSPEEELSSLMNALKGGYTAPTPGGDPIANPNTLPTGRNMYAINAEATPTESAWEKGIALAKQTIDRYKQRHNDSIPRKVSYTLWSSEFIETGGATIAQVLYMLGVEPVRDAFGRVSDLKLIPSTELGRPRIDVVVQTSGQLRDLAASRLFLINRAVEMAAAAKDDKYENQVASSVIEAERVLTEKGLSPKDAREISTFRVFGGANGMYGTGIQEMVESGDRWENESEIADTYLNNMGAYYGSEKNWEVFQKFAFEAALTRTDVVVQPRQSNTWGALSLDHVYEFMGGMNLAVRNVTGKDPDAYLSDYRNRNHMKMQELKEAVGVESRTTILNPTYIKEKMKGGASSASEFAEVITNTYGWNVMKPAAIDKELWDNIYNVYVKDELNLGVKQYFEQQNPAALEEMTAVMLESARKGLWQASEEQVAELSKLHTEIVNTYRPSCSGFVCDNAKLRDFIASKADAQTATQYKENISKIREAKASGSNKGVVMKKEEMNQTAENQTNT

HmuS [2] = target: T2, HmuS (Bacteroides thetaiotaomicron, UniProt A0A0P0FP54, H538A); assay: UV/vis hemin titration of purified mutant; no turnover to PPIX; type: binding
T2 construct: gene GAN91_17490; soluble HmuS without its predicted N- and C-terminal membrane-anchoring helices

Question: What does the source list for `C=CC1=C(C)C2=Cc3c(C=C)c(C)c4[n]3[Fe][n]3c(c(C)c(CCC(=O)O)c3=CC3=NC(=C4)C(C)=C3CCC(=O)O)=CC1=N2` [heme]?
Answer: Kd (HmuS [1]): 6 ± 6 µM; Kd (HmuS [2]): 1.4 ± 0.1 µM
